Test results: the supplement of paper PMC13380429

Experiments:
[1] = test system: HepG2; test: relative viability EC50 (midpoint between 100% and the lowest measured viability); higher = less toxic; details: 72 h
[2] = test system: Calu-3; test: as above; details: 72 h
[3] = test system: Caco-2; test: as above; details: 72 h
[4] = test system: U2OS; test: as above; details: 72 h
[5] = test system: Vero E6; test: as above; details: 72 h
[6] = test system: A549-ACE2 infected with SARS-CoV-2; test: SARS-CoV-2 infection rate relative to DMSO; higher = more infection; details: 24 h
[7] = test system: A549-ACE2 infected with SARS-CoV-2; test: cell count relative to DMSO; higher = less toxic; details: 24 h
[8] = test system: HepG2; test: cell viability relative to DMSO; higher = less toxic; details: 72 h
[9] = test system: Calu-3; test: as above; details: 72 h
[10] = test system: Caco-2; test: as above; details: 72 h
[11] = test system: U2OS; test: as above; details: 72 h
[12] = test system: Vero E6; test: as above; details: 72 h
[13] = test system: A549-ACE2; test: drug-induced phospholipidosis relative to tamoxifen; higher = more phospholipidosis
[14] = test system: HepG2; test: drug sensitivity score (DSS) for viability; higher = more toxic; extreme values may be limits of the assay; details: 72 h
[15] = test system: Calu-3; test: as above; details: 72 h
[16] = test system: Caco-2; test: as above; details: 72 h
[17] = test system: U2OS; test: as above; details: 72 h
[18] = test system: Vero E6; test: as above; details: 72 h
[19] = test system: A549-ACE2 infected with SARS-CoV-2; test: morphology score (similarity to uninfected cells); higher = more like uninfected cells; details: 24 h
[20] = test system: A549-ACE2; test: phospholipidosis EC50; higher = less potent phospholipidosis inducer

COc1ccc(/C=C2\CCCN=C2c2cccnc2)c(OC)c1 [GTS21]
Details	drug sensitivity score	relative viability EC50 [µM]
[1]	–	> 10
[2]	–	> 10
[3]	–	> 10
[4]	–	> 10
[5]	–	> 10
[14]	0	–
[15]	0	–
[16]	0	–
[17]	0	–
[18]	0.1	–

Details	SARS-CoV-2 infection rate, [6] [%]	cell count, [7] [%]	cell viability, [8] [%]	cell viability, [9] [%]	cell viability, [10] [%]	cell viability, [11] [%]	cell viability, [12] [%]	morphology score, [19]
1 nM	–	–	113	97.4	104	94.8	107	–
10 nM	–	–	101	94.1	97.2	105	100	–
100 nM	–	–	101	101	93.9	96.2	103	–
0.3 µM	108	96	–	–	–	–	–	-0.18
1000 nM	–	–	104	95.3	106	102	102	–
3 µM	99	99	–	–	–	–	–	-0.04
10 µM	86	110	–	–	–	–	–	0.24
10000 nM	–	–	93.7	97	95.4	90.9	86.3	–
30 µM	28	118	–	–	–	–	–	0.78

drug-induced phospholipidosis [%], [13]
Details	0.3 µM	0.833333 µM	3.33333 µM	6.66667 µM	10 µM	30 µM
24 h	2.83	0.08	1.02	-1.62	5.46	7.31
48 h	4.89	-1.26	2.13	1.63	7.64	10
72 h	3.83	-0.539	2.57	1.51	7.5	15.1

CN1CCCC(CN2c3ccccc3Sc3ccccc32)C1 (stereo not given) [mepazine]
Details	SARS-CoV-2 infection rate [%]	cell count [%]	cell viability [%]	morphology score	phospholipidosis EC50 [µM]
[6], 0.3 µM	102	–	–	–	–
[6], 3 µM	59	–	–	–	–
[6], 10 µM	16	–	–	–	–
[6], 30 µM	27	–	–	–	–
[7], 0.3 µM	–	103	–	–	–
[7], 3 µM	–	112	–	–	–
[7], 10 µM	–	122	–	–	–
[7], 30 µM	–	113	–	–	–
[8], 1 nM	–	–	98.3	–	–
[8], 10 nM	–	–	102	–	–
[8], 100 nM	–	–	100	–	–
[8], 1000 nM	–	–	87.9	–	–
[8], 10000 nM	–	–	84.8	–	–
[9], 1 nM	–	–	106	–	–
[9], 10 nM	–	–	99.2	–	–
[9], 100 nM	–	–	99.3	–	–
[9], 1000 nM	–	–	99.5	–	–
[9], 10000 nM	–	–	72.8	–	–
[10], 1 nM	–	–	94.1	–	–
[10], 10 nM	–	–	98.3	–	–
[10], 100 nM	–	–	98.2	–	–
[10], 1000 nM	–	–	101	–	–
[10], 10000 nM	–	–	85.7	–	–
[11], 1 nM	–	–	99.1	–	–
[11], 10 nM	–	–	98.6	–	–
[11], 100 nM	–	–	98.6	–	–
[11], 1000 nM	–	–	100	–	–
[11], 10000 nM	–	–	91.4	–	–
[12], 1 nM	–	–	101	–	–
[12], 10 nM	–	–	101	–	–
[12], 100 nM	–	–	103	–	–
[12], 1000 nM	–	–	97.1	–	–
[12], 10000 nM	–	–	94.8	–	–
[19], 0.3 µM	–	–	–	0.02	–
[19], 3 µM	–	–	–	0.61	–
[19], 10 µM	–	–	–	0.86	–
[19], 30 µM	–	–	–	0.32	–
[20], 24 h	–	–	–	–	3.88
[20], 48 h	–	–	–	–	6.39
[20], 72 h	–	–	–	–	9.51

Details	drug sensitivity score	relative viability EC50 [µM]
[1]	–	> 10
[3]	–	> 10
[4]	–	> 10
[5]	–	> 10
[14]	1.1	–
[15]	1.2	–
[16]	0.1	–
[17]	0	–
[18]	0	–

drug-induced phospholipidosis [%], [13]
Details	0.3 µM	0.833333 µM	3.33333 µM	6.66667 µM	10 µM	30 µM
24 h	2.48	6.78	32.9	53.3	64.8	70.3
48 h	1.98	4.75	20.8	48.9	65.8	86.6
72 h	3.11	3.43	18.8	39.1	63.9	101

COC(=O)C[C@](O)(CCC(C)(C)O)C(=O)O[C@@H]1C(OC)=C[C@]23CCCN2CCc2cc4c(cc2[C@H]13)OCO4 [harringtonine]
Details	drug sensitivity score	relative viability EC50 [µM]
[1]	–	0.0934
[2]	–	0.233
[4]	–	0.0946
[5]	–	0.686
[14]	24.5	–
[15]	14.3	–
[16]	11.3	–
[17]	23.5	–
[18]	12.6	–

Details	SARS-CoV-2 infection rate, [6] [%]	cell count, [7] [%]	cell viability, [8] [%]	cell viability, [9] [%]	cell viability, [10] [%]	cell viability, [11] [%]	cell viability, [12] [%]	morphology score, [19]
1 nM	–	–	103	93.2	108	95.9	105	–
10 nM	–	–	108	98.7	94.6	99.2	100	–
100 nM	–	–	45.7	81	73.5	46.8	109	–
0.3 µM	5	92	–	–	–	–	–	0.57
1000 nM	–	–	11.1	34.9	56.3	11	34.2	–
3 µM	21	62	–	–	–	–	–	0.26
10 µM	12	50	–	–	–	–	–	0.27
10000 nM	–	–	0.3	24.9	53.6	0.9	9.1	–
30 µM	33	37	–	–	–	–	–	0.29

[13], 24 h
Details	drug-induced phospholipidosis [%]
0.3 µM	0.19
0.833333 µM	-6.78
